Experimental data as given in US20020115710A1, “Composition and method” (priority 2000, published 2002).

What was measured:
dogs = assay: Feeding safety study of dl-alpha lipoic acid in food: body weight, physical examination, serum biochemistry, hematology (Example 3); type: in vivo
Description: (§1) 30 adult, random source, dogs were utilized for this study. Dogs were at least 10 months of age, not pregnant, not lactating and of reasonable body weight prior to start of test. Animals were randomized into 5 groups for dietary treatment with 3 males and 3 females per each group.
All dogs were fed a control food (0 ppm dl-alpha-lipoic acid added) that met or exceeded all recommendations for nutrients as proposed by the American Association of Feed Control Officials (AAFCO 2000) during a 2 week prefeeding period (Table 1). […]
Test foods were the sole source of nutrients except for water. […] After dogs were selected and initial body weights taken, a food dose was calculated for each dog based on the expected ME of the food. Initial food dose calculations were based on the maintenance energy requirement (MER) for the dog modified by a factor to account for normal activity as calculated by the following formula: […]
Dogs were weighed weekly and had food doses adjusted as needed in order to feed enough food to maintain their optimal body weight. Optimal body weight was determined to be 3 on a 5 point scale. […] All measures of body weight and food intake were recorded. […]
Comparison of values for clinical chemistry, hematology and body weights vs baseline were analyzed by way of paired t-test on SAS for windows with significance set at P<0.05. […]

GSH:GSSG ratio = GSH:GSSG ratio in isolated blood lymphocytes of dogs fed dl-alpha lipoic acid (Example 3); type: in vivo
Description: as §1
All dogs were fed a control food (0 ppm dl-alpha-lipoic acid added) that met or exceeded all recommendations for nutrients as proposed by the American Association of Feed Control Officials (AAFCO 2000) during a 2 week prefeeding period (Table 1). Following the prefeeding period dogs were randomized into 5 treatment groups with one of the following dl-alpha lipoic acid target-inclusions (dry matter basis): 0 ppm, 150 ppm, 1500 ppm, 3000 ppm, 4500 ppm. In all diets, control and alpha lipoic acid, Vitamin E was added and was present at a level of 600-1000 International Units and Vitamin C was added at levels of 100-200 ppm.
Blood was collected aseptically for complete blood count, and blood biochemistry analysis 2 weeks prior to start and again at 0, 28, 56, 84, 112, 140 and 168 days of the study. In addition, 15 ml of whole blood was collected for isolation of lymphocytes at day 0, 28 and 84 of the dietary intervention.
Heparainzed whole blood was layered onto a 50 ml Accuspin conical centrifuge tube (Sigma Chemical) and an equal volume of Phosphate buffered saline (PBS) was added. Samples were centrifuged at 700 g for 30 minutes without brake. The monocyte layer was harvested, transferred to a 15 ml conical centrifuge tube, resuspended in 1-3 ml of PB, and centrifuged as before (First wash). A second wash was performed as the first wash. Finally, cells were harvested and suspended in perchloric acid (10%w/v) and frozen at −−70C until analysis.
Samples were transferred from −70° C. freezer into a cooler with dry ice in it. Vials were centrifuged at 12,000 rpm for 5 minutes in a refrigerated centrifuge. An aliquot of supernatant for glutathione (GSH) analysis was transferred to a conical test tube.
Derivatization of the acid soluble extracts was by the method of Reed and coworkers (Fariss et al) as modified by Jones (Jones et al)
Briefly, 150 μl extract or external standards were added into a 1.5 ml eppendorf tube followed by addition of 20 μl γ-glu-glu internal standard and 50 μl IAA added followed by mixing. The solution was adjusted to pH ˜10 (purple color) by using KOH—KHCO3 working solution. Solutions were incubated 1 hr. under room temperature in the dark. Sanger's reagent was added at the same volume as of the total volume and the solution was incubated overnight (20 hrs) in the dark at room temperature.
After incubation, the solution was centrifuged at 12000 rpm for 5 minutes with the supernatant transferred into another 1.5 ml eppendorf tube.
Solvents and separation conditions were as described (Fariss, Jones). Levels of GSH and GSSG were quantified relative to authentic standards. Gamma-glutamyl-glutamate was used as an internal standard to assess derivatization efficiency.
Comparison of values for clinical chemistry, hematology and body weights vs baseline were analyzed by way of paired t-test on SAS for windows with significance set at P<0.05. Means of values at each measured time point were separated by a one-way ANOVA with significance set at P<0.05. The difference in GSH:GSSG between day 84 and baseline were analyzed between groups by way of SAS for windows in a one-way ANOVA with significance set at P<0.05.

## O=C(O)CCCCC1CCSS1 (racemic) [dl-alpha-lipoic acid]
dogs; dog, in vivo
  safety of chronic feeding in diet: safe
dogs; dogs, no trend attributable to lipoic acid
  vomiting during the study: Occasional vomiting was observed in several animals
GSH:GSSG ratio; 150 ppm inclusion in extruded food, N 6
  Difference in GSH:GSSG ratio-d 0 to d 84 compared to baseline food: 70 ± 20
GSH:GSSG ratio; 1500 ppm inclusion in extruded food, N 6
  Difference in GSH:GSSG ratio-d 0 to d 84 compared to baseline food: 24 ± 7
GSH:GSSG ratio; 3000 ppm inclusion in extruded food, N 4
  Difference in GSH:GSSG ratio-d 0 to d 84 compared to baseline food: 10 ± 4
GSH:GSSG ratio; 4500 ppm inclusion in extruded food, N 4
  Difference in GSH:GSSG ratio-d 0 to d 84 compared to baseline food: 50 ± 36
GSH:GSSG ratio; 84 days of feeding in diet
  effect on reduced glutathione (GSH) to oxidized glutathione (GSSG) ratio: improves
